Results from US6750208B1, “Medicine for treating apoptosis dysfunction containing oligosaccharides” (Laboratoires Goemar S.A., priority 1998, dated 2004).

System: cells as in Example 1, FasAb-induced apoptosis
Assay: effect of I9 fractions on low dose FasAb-induced apoptosis (Example 3)
Format: cell-based
Details: 0.2 mg/ml simultaneously with 100 ng/ml FasAb of Euromedex origin; 24 hours of incubation
Procedure: The effect induced by various constituents of this mixture, in particular of fractions DP 2, DP 3, DP 4, DP 5 and DP 7, was tested.
The polymer constituting the raw material of I9 was also tested, as was the product named KIK (hexasaccharide of type kappa-iota-kappa).
For these experiments, the procedure was carried out as in Example 1, simultaneously introducing, on the one hand, 0.2 mg/ml of each of the abovementioned fractions of I9 and, on the other hand, 100 ng/ml of FasAb of Euromedex origin.
After 24 hours of incubation, the findings summarized below were made.

For iota-neocarrahexaose [DP 3], the “stimulatory effect on FasAb-induced apoptosis” value (“stimulatory effect” below) was “inactive”.

With oligo-iota-carrageenan [DP 7] the “stimulatory effect” value was 50%.

With iota-carrageenan the “stimulatory effect” value was “active”.

In the case of iota-neocarradecaose [DP 5], the “stimulatory effect” value is reported as “inactive”.

For iota-neocarraoctaose [DP 4], the “stimulatory effect” value was “inactive”.

For iota-neocarraletraose [DP 2], the “stimulatory effect” value was “inactive”.
